The nature of data set [1]: Dose normalised AUC in rat after po administration. The note with it: in vivo.
A short description of data set [2]: Dose normalised AUC in dog after po administration. The note with it: in vivo.
A short description of data set [3]: Dose normalised AUC in monkey after po administration. The note with it: macaca, in vivo.
Data set [4] can be described thus: Dose normalised AUC in human after po administration. The note with it: in vivo.

With `O=C(O)CCc1nc(-c2ccccc2)c(-c2ccccc2)o1` [OXAPROZIN], the DNAUC in data set [1] came out at 0.04 kg·min/L; in data set [2], 3.2 kg·min/L; in data set [3], 2.85 kg·min/L; in data set [4], 9.07 kg·min/L.
Take `CC1COc2c(N3CCN(C)CC3)c(F)cc3c(=O)c(C(=O)O)cn1c23` (stereo unspecified) [OFLOXACIN]: the DNAUC in data set [1] amounted to 32.85 kg·min/L; in data set [2], 407.7 kg·min/L; in data set [3], 218.1 kg·min/L; in data set [4], 297.93 kg·min/L.
Consider `CC(=O)[C@H]1CC[C@H]2[C@@H]3CC[C@H]4C[C@](C)(O)CC[C@]4(C)[C@H]3CC[C@]12C` [GANAXOLONE], for which the DNAUC came out at 0.76 kg·min/L in data set [1], 77.25 kg·min/L in data set [2], 1.39 kg·min/L in data set [3] and 5.65 kg·min/L in data set [4].
`NCC1(CC(=O)O)CCCCC1` [GABAPENTIN]: the DNAUC in data set [1] was determined as 87.72 kg·min/L; in data set [2], 290.4 kg·min/L; in data set [3], 156.24 kg·min/L; in data set [4], 369.82 kg·min/L.
Take `CC(C(=O)O)c1ccc(-c2ccccc2)c(F)c1` (stereo unspecified) [FLURBIPROFEN]: the DNAUC in data set [1] came out at 1042.5 kg·min/L; in data set [2] it was 4718.5 kg·min/L; in data set [3], 2364.5 kg·min/L; in data set [4], 2900.56 kg·min/L.
With `COc1ccc2c(c1)c(CC(=O)O)c(C)n2C(=O)c1ccc(Cl)cc1` [INDOMETHACIN], the DNAUC in data set [1] was determined as 2056 kg·min/L; in data set [2], 793.3 kg·min/L; in data set [3] it was 133.1 kg·min/L; in data set [4] it was 488.62 kg·min/L.
For `COCCc1ccc(OCC(O)CNC(C)C)cc1` (stereo unspecified) [METOPROLOL] the same measures were 58 kg·min/L, 15.8 kg·min/L, 8.33 kg·min/L and 25.33 kg·min/L.
Consider `CC(C)NCC(O)COc1cccc2ccccc12` (stereo unspecified) [PROPRANOLOL], for which the DNAUC in data set [1] came out at 37.8 kg·min/L; in data set [2] it was 8.32 kg·min/L; in data set [3] it was 1.32 kg·min/L; in data set [4], 17.33 kg·min/L.
On to `CC[C@H]1OC(=O)[C@H](C)[C@@H](O[C@H]2C[C@@](C)(OC)[C@@H](O)[C@H](C)O2)[C@H](C)[C@@H](O[C@@H]2O[C@H](C)C[C@H](N(C)C)[C@H]2O)[C@](C)(O)C[C@@H](C)C(=O)[C@H](C)[C@@H](O)[C@]1(C)O` [ERYTHROMYCIN], for which the DNAUC in data set [1] worked out at 1.88 kg·min/L; in data set [2], 31.38 kg·min/L; in data set [3] it was 1.32 kg·min/L; in data set [4], 36.8 kg·min/L.
Turning to `O=C1CN=C(c2ccccc2Cl)c2cc([N+](=O)[O-])ccc2N1` [CLONAZEPAM], the DNAUC in data set [1] was 3.47 kg·min/L; in data set [2], 24 kg·min/L; in data set [3], 36.8 kg·min/L; in data set [4], 590 kg·min/L.
Taken in the same sequence, the figures for `C[C@H](C(=O)O)c1ccc2oc(-c3ccc(F)cc3)nc2c1` [FLUNOXAPROFEN] were 14620.68 kg·min/L, 960.78 kg·min/L, 1464.8 kg·min/L and 2794 kg·min/L.
In the case of `CC(C)N(CCC(C(N)=O)(c1ccccc1)c1ccccn1)C(C)C` (stereo unspecified) [DISOPYRAMIDE], the DNAUC is 6.07 kg·min/L in data set [1], 101.6 kg·min/L in data set [2], 2.2 kg·min/L in data set [3] and 550.48 kg·min/L in data set [4].
For `COc1ccc(C(C)C)cc1CN[C@H]1C2CCN(CC2)[C@H]1C(c1ccccc1)c1ccccc1` [EZLOPITANT] the same measures were 2.36 kg·min/L, 10.82 kg·min/L, 0.6 kg·min/L and 125 kg·min/L.
Consider `CC(=O)NCCOC(=O)C(Oc1cccc(C(F)(F)F)c1)c1ccc(Cl)cc1` (stereo unspecified) [HALOFENATE], for which the DNAUC in data set [1] was 9183.98 kg·min/L; in data set [2], 390.13 kg·min/L; in data set [3] it was 3918.28 kg·min/L; in data set [4], 15037.59 kg·min/L.
For `COC(=O)C1=C(C)NC(C)=C(C(=O)OCCN(C)Cc2ccccc2)C1c1cccc([N+](=O)[O-])c1` (stereo unspecified) [NICARDIPINE] the same measures were 1.1 kg·min/L, 2 kg·min/L, 3.84 kg·min/L and 10 kg·min/L.
Turning to `CCCCN1C[C@H](O)[C@@H](O)[C@H](O)[C@H]1CO` [MIGLUSTAT], the DNAUC in data set [1] worked out at 16.6 kg·min/L; in data set [2] it was 204 kg·min/L; in data set [3] it was 166.88 kg·min/L; in data set [4] it was 358.71 kg·min/L.
`O=c1ccc2ccccc2o1` [COUMARIN]: the DNAUC in data set [1] is 37.5 kg·min/L; in data set [2] it was 40.38 kg·min/L; in data set [3] it was 31.8 kg·min/L; in data set [4] it was 2.03 kg·min/L.
Regarding `CC(C(=O)O)c1ccc(C(=O)c2cccs2)cc1` (stereo unspecified) [SUPROFEN], the DNAUC in data set [1] stood at 320 kg·min/L; in data set [2], 1108 kg·min/L; in data set [3] it was 355 kg·min/L; in data set [4], 619.76 kg·min/L.
For `Cc1ncc2n1-c1ccc(Cl)cc1C(c1ccccc1F)=NC2` [MIDAZOLAM], the DNAUC in data set [1] came to 1.64 kg·min/L; in data set [2], 23.79 kg·min/L; in data set [3], 4.17 kg·min/L; in data set [4] it was 66.67 kg·min/L.

Values taken from ChEMBL document CHEMBL1614631, “Comparative evaluation of oral systemic exposure of 56 xenobiotics in rat, dog, monkey and human” (Xenobiotica, 2005).
